Laboratory results from patent US20260062422A1 (Halda Therapeutics OpCo, Inc., priority 2022, published 2026).

What was measured:
VCaP cells = assay: Cellular growth inhibition assay for VCaP cells, CellTiter-Glo; assay type: cell-based, human; conditions: Homo sapiens, VCaP, 72 h, 72 hours treatment, CellTiter-Glo 2.0
Summary of the method: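 GI50 values come from four-parameter curve fits of luminescence data normalized to a zero baseline. Compound, in medium with 0.5% DMSO, was added one day after plating and left for 72 h before CellTiter-Glo 2.0 addition.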

[1] = tested on: T-Rex 293 cell line SC3 cells having increased expression of androgen receptor protein due to exposure to doxycycline; assay: Cellular growth inhibition, T-Rex 293 SC3 cells with doxycycline (androgen receptor induced), CellTiter-Glo; assay type: cell-based; conditions: 72 h, T-Rex 293 SC3 cells with 10 ng/mL doxycycline (increased androgen receptor expression)
Summary of the method: (§1)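 Luminescence read-out (CellTiter-Glo 2.0) after 72 h compound exposure; GI50 by four-parameter nonlinear regression, baseline set at zero luminescence. SC3 cells, a doxycycline-inducible wild-type AR clone of T-Rex 293, were cultured ±10 ng/mL doxycycline in charcoal-dextran FBS medium.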

T47D cells = assay: Cellular growth inhibition assay for T47D cells, CellTiter-Glo; assay type: cell-based, human; conditions: Homo sapiens, T47D, 72 h, 72 hours treatment, CellTiter-Glo 2.0 cell viability
Summary of the method: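 Growth inhibition as GI50, fitted with four parameters to CellTiter-Glo luminescence after 72 h of compound exposure (0.5% DMSO). Cells were T47D, grown in insulin-supplemented (0.2 units/mL) DMEM with 10% FBS and treated one day post-seeding.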

[2] = tested on: T-Rex 293 cell line SC3 cells lacking increased expression of androgen receptor protein; assay: Cellular growth inhibition, T-Rex 293 SC3 cells without doxycycline, CellTiter-Glo; assay type: cell-based; conditions: 72 h, T-Rex 293 SC3 cells not exposed to doxycycline, CellTiter-Glo 2.0
Summary of the method: as §1

SMILES	GI50 (VCaP cells) [nM]	GI50 (T47D cells) [nM]	GI50 [1] [nM]	GI50 [2] [nM]
Cc1sc2c(c1C)C(c1ccc(OC3CC4(CCN(c5ncc(C(=O)N[C@H]6C(C)(C)[C@H](Oc7ccc(C#N)c(Cl)c7)C6(C)C)cn5)CC4)C3)cc1)=N[C@H](Cc1ncco1)c1nnc(C)n1-2 [Compound I-50, N-[3-(3-chloro-4-cyano-phenoxy)-2,2,4,4-tetramethyl-cyclobutyl]-2-[2-[4-[(9R)-4,5,13-trimethyl-9-(oxazol-2-ylmethyl)-3-thia-1,8,11,12-tetrazatricyclo[8.3.0.02,6]trideca-2(6),4,7,10,12-pentaen-7-yl]phenoxy]-7-azaspiro[3.5]nonan-7-yl]pyrimidine-5-carboxamide]	> 3000	> 3000	< 500	> 3000
Cc1sc2c(c1C)C(c1ccc(C#CCN3CCN(c4ncc(C(=O)N[C@H]5C(C)(C)[C@H](Oc6ccc(C#N)c(Cl)c6)C5(C)C)cn4)CC3)cc1)=N[C@@H](Cc1ncco1)c1nnc(C)n1-2 [Compound I-56]	< 500	< 500	< 500	< 500
Cc1sc2c(c1C)C(c1ccc(C#CCC3CCN(c4ncc(C(=O)N[C@H]5C(C)(C)[C@H](Oc6ccc(C#N)c(Cl)c6)C5(C)C)cn4)CC3)cc1)=N[C@@H](Cc1ncco1)c1nnc(C)n1-2 [Compound I-57]	< 500	< 500	< 500	< 500
Cc1sc2c(c1C)C(c1ccc(C#CCC3CCN(c4ncc(C(=O)N[C@H]5C(C)(C)[C@H](Oc6ccc(C#N)c(Cl)c6)C5(C)C)cn4)CC3)cc1)=N[C@H](Cc1ncco1)c1nnc(C)n1-2 [Compound I-58]	< 500	> 3000	< 500	> 3000
Cc1sc2c(c1C)C(c1ccc(C#CC3CC4(C3)CN(c3ncc(C(=O)N[C@H]5C(C)(C)[C@H](Oc6ccc(C#N)c(Cl)c6)C5(C)C)cn3)C4)cc1)=N[C@@H](Cc1ncco1)c1nnc(C)n1-2 [Compound I-59]	< 500	< 500	< 500	< 500
Cc1sc2c(c1C)C(c1ccc(OCCOC3CCN(c4ncc(C(=O)N[C@H]5C(C)(C)[C@H](Oc6ccc(C#N)c(Cl)c6)C5(C)C)cn4)CC3)cc1)=N[C@@H](CC(=O)NC(C)C)c1nnc(C)n1-2 [Compound I-65]	< 500	500 to 1500	< 500	< 500
Cc1sc2c(c1C)C(c1ccc(OCCOC3CCN(c4ncc(C(=O)N[C@H]5C(C)(C)[C@H](Oc6ccc(C#N)c(Cl)c6)C5(C)C)cn4)CC3)cc1)=N[C@@H](CC(=O)NC1CC1)c1nnc(C)n1-2 [Compound I-67]	< 500	500 to 1500	< 500	< 500
CCNC(=O)C[C@@H]1N=C(c2ccc(CN3CC4CN(c5ncc(C(=O)N[C@H]6C(C)(C)[C@H](Cc7ccc(C#N)c(Cl)c7)C6(C)C)cn5)CC4C3)cc2)c2c(sc(C)c2C)-n2c(C)nnc21 (some centres unmarked) [Compound I-94]	< 500	500 to 1500	< 500	500 to 1500
CCNC(=O)C[C@@H]1N=C(c2ccc(N3CCC(CN4CCN(c5ncc(C(=O)N[C@H]6C(C)(C)[C@H](Oc7ccc(C#N)c(Cl)c7)C6(C)C)cn5)CC4)CC3)cc2)c2c(sc(C)c2C)-n2c(C)nnc21 [Compound I-109]	< 500	< 500	< 500	500 to 1500
CCNC(=O)C[C@@H]1N=C(c2ccc(N3CCC(OC4CCN(c5ncc(C(=O)N[C@H]6C(C)(C)[C@H](Oc7ccc(C#N)c(Cl)c7)C6(C)C)cn5)CC4)C3)cc2)c2c(sc(C)c2C)-n2c(C)nnc21 (some centres unmarked) [Compound I-126]	500 to 1500	< 500	< 500	500 to 1500

Continued, in another order:

GI50 (VCaP cells) [nM]	GI50 (T47D cells) [nM]	SMILES	GI50 [1] [nM]	GI50 [2] [nM]
< 500	500 to 1500	CCNC(=O)C[C@@H]1N=C(c2ccc(OCCC3CCN(c4ncc(C(=O)N[C@H]5C(C)(C)[C@H](Oc6ccc(C#N)c(Cl)c6)C5(C)C)cn4)CC3)cc2)c2c(sc(C)c2C)-n2c(C)nnc21 [Compound I-69]	< 500	< 500
< 500	500 to 1500	CCNC(=O)C[C@@H]1N=C(c2ccc(OCCN3CCN(c4ncc(C(=O)N[C@H]5C(C)(C)[C@H](Oc6ccc(C#N)c(Cl)c6)C5(C)C)cn4)CC3)cc2)c2c(sc(C)c2C)-n2c(C)nnc21 [Compound I-70]	< 500	500 to 1500
< 500	< 500	CCNC(=O)C[C@@H]1N=C(c2ccc(OC3CC(OC4CCN(c5ncc(C(=O)N[C@H]6C(C)(C)[C@H](Oc7ccc(C#N)c(Cl)c7)C6(C)C)cn5)CC4)C3)cc2)c2c(sc(C)c2C)-n2c(C)nnc21 (some centres unmarked) [Compound I-72]	< 500	500 to 1500
< 500	< 500	CCNC(=O)C[C@@H]1N=C(c2ccc(OC3CN(CC4CCN(c5ncc(C(=O)N[C@H]6C(C)(C)[C@H](Oc7ccc(C#N)c(Cl)c7)C6(C)C)cn5)CC4)C3)cc2)c2c(sc(C)c2C)-n2c(C)nnc21 [Compound I-79]	< 500	500 to 1500
< 500	500 to 1500	CCNC(=O)C[C@@H]1N=C(c2ccc(OCCN(C)c3ncc(C(=O)N[C@H]4C(C)(C)[C@H](Oc5ccc(C#N)c(Cl)c5)C4(C)C)cn3)cc2)c2c(sc(C)c2C)-n2c(C)nnc21 [Compound I-80]	< 500	500 to 1500
500 to 1500	< 500	CCNC(=O)C[C@@H]1N=C(c2ccc(OC3CC(N(C)C4CCN(c5ncc(C(=O)N[C@H]6C(C)(C)[C@H](Oc7ccc(C#N)c(Cl)c7)C6(C)C)cn5)CC4)C3)cc2)c2c(sc(C)c2C)-n2c(C)nnc21 (some centres unmarked) [Compound I-82]	< 500	500 to 1500
< 500	< 500	CCNC(=O)C[C@@H]1N=C(c2ccc(CCCOC3CCN(c4ncc(C(=O)N[C@H]5C(C)(C)[C@H](Oc6ccc(C#N)c(Cl)c6)C5(C)C)cn4)CC3)cc2)c2c(sc(C)c2C)-n2c(C)nnc21 [Compound I-87, N-[3-(3-chloro-4-cyano-phenoxy)-2,2,4,4-tetramethyl-cyclobutyl]-2-[4-[3-[4-[(9S)-9-[2-(ethylamino)-2-oxo-ethyl]-4,5,13-trimethyl-3-thia-1,8,11,12-tetrazatricyclo[8.3.0.02,6]trideca-2(6),4,7,10,12-pentaen-7-yl]phenyl]propoxy]-1-piperidyl]pyrimidine-5-carboxamide]	< 500	< 500
< 500	500 to 1500	CCNC(=O)C[C@@H]1N=C(c2ccc(CCC3CN(c4ncc(C(=O)N[C@H]5C(C)(C)[C@H](Oc6ccc(C#N)c(Cl)c6)C5(C)C)cn4)C3)cc2)c2c(sc(C)c2C)-n2c(C)nnc21 [Compound I-93]	< 500	500 to 1500
500 to 1500	< 500	CCNC(=O)C[C@@H]1N=C(c2ccc(CCCN3CCN(c4ncc(C(=O)N[C@H]5C(C)(C)[C@H](Oc6ccc(C#N)c(Cl)c6)C5(C)C)cn4)CC3)cc2)c2c(sc(C)c2C)-n2c(C)nnc21 [Compound I-99]	< 500	500 to 1500
500 to 1500	500 to 1500	CCNC(=O)C[C@@H]1N=C(c2ccc(CCN(C)c3ncc(C(=O)N[C@H]4C(C)(C)[C@H](Oc5ccc(C#N)c(Cl)c5)C4(C)C)cn3)cc2)c2c(sc(C)c2C)-n2c(C)nnc21 [Compound I-103]	< 500	500 to 1500
< 500	< 500	CCNC(=O)C[C@@H]1N=C(c2ccc(N(C)CCC3CCN(c4ncc(C(=O)N[C@H]5C(C)(C)[C@H](Oc6ccc(C#N)c(Cl)c6)C5(C)C)cn4)CC3)cc2)c2c(sc(C)c2C)-n2c(C)nnc21 [Compound I-110]	< 500	< 500
< 500	< 500	CCNC(=O)C[C@@H]1N=C(c2ccc(N3CC(OC4CCN(c5ncc(C(=O)N[C@H]6C(C)(C)[C@H](Oc7ccc(C#N)c(Cl)c7)C6(C)C)cn5)CC4)C3)cc2)c2c(sc(C)c2C)-n2c(C)nnc21 [Compound I-117]	< 500	500 to 1500
< 500	< 500	CCNC(=O)C[C@@H]1N=C(c2ccc(N3CCC(OC4CN(c5ncc(C(=O)N[C@H]6C(C)(C)[C@H](Oc7ccc(C#N)c(Cl)c7)C6(C)C)cn5)C4)CC3)cc2)c2c(sc(C)c2C)-n2c(C)nnc21 [Compound I-118]	< 500	500 to 1500
< 500	< 500	CCNC(=O)C[C@@H]1N=C(c2ccc(N3CC(N(C)C4CCN(c5ncc(C(=O)N[C@H]6C(C)(C)[C@H](Oc7ccc(C#N)c(Cl)c7)C6(C)C)cn5)CC4)C3)cc2)c2c(sc(C)c2C)-n2c(C)nnc21 [Compound I-122]	< 500	500 to 1500
< 500	500 to 1500	CCNC(=O)C[C@@H]1N=C(c2ccc(N3CC(N(C(C)C)C4CN(c5ncc(C(=O)N[C@H]6C(C)(C)[C@H](Oc7ccc(C#N)c(Cl)c7)C6(C)C)cn5)C4)C3)cc2)c2c(sc(C)c2C)-n2c(C)nnc21 [Compound I-125]	< 500	500 to 1500
< 500	< 500	CCNC(=O)C[C@@H]1N=C(c2ccc(N3CC(CC4CN(c5ncc(C(=O)N[C@H]6C(C)(C)[C@H](Oc7ccc(C#N)c(Cl)c7)C6(C)C)cn5)C4)C3)cc2)c2c(sc(C)c2C)-n2c(C)nnc21 [Compound I-127]	< 500	500 to 1500
